Laboratory results as given in ChEMBL document CHEMBL1134446, “Polyamine analogue antidiarrheals: a structure-activity study” (J Med Chem, 2001).
Several values for one entry are separate records, joined by “and”; a condition that tells them apart may be missing. Identical values can stand only once.

What was measured:
Canis familiaris [1] = assay: MESPM/MEHSPH Distribution in liver was determined after DEHSPM dosing of 2.0 mg/kg/day for 29 days in dog(cu dose-52.4) and sacrificed at 10 days PLD(cu dose-58 mg/kg); format: ADME, organism-based, Canis lupus familiaris; settings: in vivo, 240 h
Canis familiaris [2] = assay: Distribution in kidney was determined after DESPM dosing of 6.0 mg/kg/day for 4.5 days in dog(cu dose-52.4) and sacrificed at 10 days PLD(cu dose-27 mg/kg); format: ADME, organism-based, Canis lupus familiaris; settings: in vivo, 240 h
Canis familiaris [3] = assay: Distribution in liver was determined after DESPM dosing of 1.87 mg/kg/day for 28 days in dog(cu dose-52.4) and sacrificed at 10 days PLD(cu dose-52.4 mg/kg); format: ADME, organism-based, Canis lupus familiaris; settings: in vivo, 240 h
Canis familiaris [4] = assay: Spermine Distribution in liver was determined after DEHSPM dosing of 2.0 mg/kg/day for 29 days in dog(cu dose-52.4) and sacrificed at 10 days PLD(cu dose-58 mg/kg); format: ADME, organism-based, Canis lupus familiaris; settings: in vivo, 240 h
Canis familiaris [5] = assay: MESPM/MEHSPH Distribution in liver was determined after DEHSPM dosing of 2.0 mg/kg/day for 29 days in dog(cu dose-52.4) and sacrificed at 10 days PLD(cu dose-22 mg/kg); format: ADME, organism-based, Canis lupus familiaris; settings: in vivo, 240 h
Canis familiaris [6] = assay: Distribution in liver was determined after DESPM dosing of 4 mg/kg/day for 13 days in dog(cu dose-52.4) and sacrificed at 75 days PLD(cu dose-52 mg/kg); format: ADME, organism-based, Canis lupus familiaris; settings: in vivo, 1800 h
Canis familiaris [7] = assay: Distribution in kidney was determined after DESPM dosing of 4 mg/kg/day for 13 days in dog(cu dose-52.4) and sacrificed at 10 days PLD(cu dose-52 mg/kg); format: ADME, organism-based, Canis lupus familiaris; settings: in vivo, 240 h
Canis familiaris [8] = assay: Distribution in liver was determined after DESPM dosing of 1.87 mg/kg/day for 28 days in dog(cu dose-52.4) and sacrificed at 75 days PLD(cu dose-52.4 mg/kg); format: ADME, organism-based, Canis lupus familiaris; settings: in vivo, 1800 h
Rattus norvegicus [9] = assay: Weight loss of rat over the 6-h experimental period when a dose of 0 mg/kg (0 administered; format: functional
Canis familiaris [10] = assay: putrescine Distribution in kidney was determined after DESPM dosing of 8.0 mg/kg/day for 4.5 days in dog and sacrificed at 75 days PLD(cu dose-36 mg/kg); format: ADME, organism-based, Canis lupus familiaris; settings: in vivo, 1800 h
Canis familiaris [11] = assay: putrescine Distribution in liver was determined after DESPM dosing of 4 mg/kg/day for 13 days in dog(cu dose-52.4) and sacrificed at 10 days PLD(cu dose-52 mg/kg); format: ADME, organism-based, Canis lupus familiaris; settings: in vivo, 240 h
Rattus norvegicus [12] = assay: Percent reduction was determined by using the ratio of mean of treated animal to that of control animal at a dose of 23.5 mg/kg; format: functional
Canis familiaris [13] = assay: Spermidine Distribution in liver was determined after DESPM dosing of 8.0 mg/kg/day for 4.5 days in dog(cu dose-52.4) and sacrificed at 10 days PLD(cu dose-36 mg/kg); format: ADME, organism-based, Canis lupus familiaris; settings: in vivo, 240 h
Canis familiaris [14] = assay: Spermidine Distribution in kidney was determined after DESPM dosing of 1.87 mg/kg/day for 28 days in dog(cu dose-52.4) and sacrificed at 10 days PLD(cu dose-52.4 mg/kg); format: ADME, organism-based, Canis lupus familiaris; settings: in vivo, 240 h
Canis familiaris [15] = assay: putrescine Distribution in liver was determined after DESPM dosing of 4 mg/kg/day for 13 days in dog(cu dose-52.4) and sacrificed at 75 days PLD(cu dose-52 mg/kg); format: ADME, organism-based, Canis lupus familiaris; settings: in vivo, 1800 h
Canis familiaris [16] = assay: Spermine Distribution in liver was determined after DESPM dosing of 8.0 mg/kg/day for 4.5 days in dog(cu dose-52.4) and sacrificed at 75 days PLD(cu dose-36 mg/kg); format: ADME, organism-based, Canis lupus familiaris; settings: in vivo, 1800 h
Canis familiaris [17] = assay: MESPM/MEHSPH Distribution in liver was determined after DESPM dosing of 4 mg/kg/day for 13 days in dog(cu dose-52.4) and sacrificed at 10 days PLD(cu dose-52 mg/kg); format: ADME, organism-based, Canis lupus familiaris; settings: in vivo, 240 h
Canis familiaris [18] = assay: putrescine Distribution in liver was determined after DESPM dosing of 6.0 mg/kg/day for 4.5 days in dog(cu dose-52.4) and sacrificed at 75 days PLD(cu dose-27 mg/kg); format: ADME, organism-based, Canis lupus familiaris; settings: in vivo, 1800 h
Canis familiaris [19] = assay: Spermine Distribution in kidney was determined after DESPM dosing of 6.0 mg/kg/day for 4.5 days in dog(cu dose-52.4) and sacrificed at 10 days PLD(cu dose-27 mg/kg); format: ADME, organism-based, Canis lupus familiaris; settings: in vivo, 240 h
Rattus norvegicus [20] = assay: Percent reduction was determined by using the ratio of mean of treated animal to that of control animal at a dose of 94 mg/kg; format: functional
Canis familiaris [21] = assay: Spermine Distribution in kidney was determined after DESPM dosing of 4 mg/kg/day for 13 days in dog(cu dose-52.4) and sacrificed at 75 days PLD(cu dose-52 mg/kg); format: ADME, organism-based, Canis lupus familiaris; settings: in vivo, 1800 h
Canis familiaris [22] = assay: MESPM/MEHSPH Distribution in liver was determined after DESPM dosing of 4 mg/kg/day for 13 days in dog(cu dose-52.4) and sacrificed at 75 days PLD(cu dose-52 mg/kg); format: ADME, organism-based, Canis lupus familiaris; settings: in vivo, 1800 h
Rattus norvegicus [23] = assay: Stool output of rat over the 6-h collection period when a dose of 0 mg/kg (0 administered; format: functional

SMILES: CCNCCCCNCCCCNCCCCNCC [DIETHYLHOMOSPERMINE]
- Wet weight of tissue (Canis familiaris [1]): 72 nM/g
- Wet weight of tissue (Canis familiaris [2]): 44 nM/g
- Wet weight of tissue (Canis familiaris [3]): 18 nM/g
- Wet weight of tissue (Canis familiaris [4]): 108 nM/g
- Wet weight of tissue (Canis familiaris [5]): 13 nM/g
- Wet weight of tissue (Canis familiaris [6]): 0 nM/g
- Wet weight of tissue (Canis familiaris [7]): 46 nM/g
- Wet weight of tissue (Canis familiaris [8]): 0 nM/g

SMILES: CCNCCCNCCCCNCCCNCC [BIS(ETHYL)SPERMINE]
- Weight loss (Rattus norvegicus [9]): 11.9 g
- Wet weight of tissue (Canis familiaris [10]): 6 nM/g
- Wet weight of tissue (Canis familiaris [11]): 82 nM/g
- Reduction (Rattus norvegicus [12]): 59% and 74%
- Wet weight of tissue (Canis familiaris [13]): 187 nM/g
- Wet weight of tissue (Canis familiaris [14]): 69 nM/g
- Wet weight of tissue (Canis familiaris [15]): 62 nM/g
- Wet weight of tissue (Canis familiaris [16]): 1058 nM/g
- Wet weight of tissue (Canis familiaris [17]): 34 nM/g
- Wet weight of tissue (Canis familiaris [18]): 101 nM/g
- Wet weight of tissue (Canis familiaris [19]): 654 nM/g
- Reduction (Rattus norvegicus [20]): 81%
- Wet weight of tissue (Canis familiaris [21]): 534 nM/g
- Wet weight of tissue (Canis familiaris [22]): 0 nM/g
- Stool output (Rattus norvegicus [23]): 7.5 g (350g of rat weight)-1
